Experimental data as given in patent US20110263507A1 (priority 2007, published 2011).
Where two headings read alike, the source gives them in different places. Where a SMILES comes first, the peptide text is derived from it. [ ]: non-standard residue; d: D form. Ala(indol-4-yl) = N[C@@H](Cc1cccc2[nH]ccc12)C(=O)O; d1Nal = N[C@H](Cc1cccc2ccccc12)C(=O)O; NMeR = CN[C@@H](CCCNC(=N)N)C(=O)O; Tle = CC(C)(C)[C@H](N)C(=O)O

Assays:
[1] = Direct injection into the brains of rats; type: in vivo; conditions: direct injection into brain, unpublished observations
Text: (See Cusack, B. et al. BRAIN RES 856: 48-54 (2000) and Tyler-McMahon, B. M. et al. EUR J PHARMACOL 390: 107-11 (2000)).

hNTS2 = target: T1, hNTS2 (Homo sapiens, UniProt O95665); assay: Radioligand competition binding with [3H]NT, membranes of CHO-K1 cells expressing hNTS2
T1 construct: expressed in transfected cells; host or cells: CHO-K1
Description: CHO-K1 cells that had been stably transfected separately with the hNTS1 or hNTS2 genes were cultured in 150 mm (500 cm^2) Petri plates with 35 ml of Dulbecco's modified Eagle's medium containing 100 μM minimal essential medium nonessential amino acids (Life Technologies, Inc.) supplemented with 5% (v/v) FetalClone II bovine serum product (Hyclone Labs, Logan, Utah). CHO cells (subculture 7-15) were harvested at confluence by aspiration of the medium, followed by a wash with ice-cold 50 mM Tris-HCl buffer, pH=7.4, which was discarded, resuspension in 5-15 ml of Tris-HCl, scraping the cells with a plastic spatula into a centrifuge tube, and collection of cells by centrifugation at 300×g for 5 min at 4° C., in a GPR centrifuge (Beckman Instruments, Fullerton, Calif.). The cellular pellet (in Tris-HCl buffer) was stored at −180° C. until the radioligand binding was performed.
Incubation was at 20° C. for 40 min. The assay was routinely terminated by addition of ice-cold 0.9% NaCl (5×1.5 ml), followed by rapid filtration through a GF/B filter strip that had been pretreated with 0.2% or 2% polyethyleneimine. […] Data were analyzed using the LIGAND program.
Curves were generated using the LIGAND program. […] Data are the means of duplicate determinations and are representative results from one of at least three independent experiments.

[2] = Degradation of peptides in plasma in vitro (stability to plasma peptidases); type: in vitro ADME; conditions: peptide incubated with human (FIG. 4) or rat plasma; read-out: half-lives in plasma
Description: All peptides that were stable (half-lives >100 h), such as NT66, NT67, NT69, NT72, and NT73, have either a blocked amino group (N-Methyl-Arg) or a D-amino in the 8 or 9 position (Table 4).

hNTS1 = target: T2, hNTS1 (Homo sapiens, UniProt P30989); assay: Radioligand competition binding with [3H]NT, membranes of CHO-K1 cells expressing hNTS1; conditions: for hNTS1 Selectivity: Table 2, hNTS1 over hNTS2
T2 construct: expressed in transfected cells; host or cells: CHO-K1
Description: CHO-K1 cells that had been stably transfected separately with the hNTS1 or hNTS2 genes were cultured in 150 mm (500 cm^2) Petri plates with 35 ml of Dulbecco's modified Eagle's medium containing 100 μM minimal essential medium nonessential amino acids (Life Technologies, Inc.) supplemented with 5% (v/v) FetalClone II bovine serum product (Hyclone Labs, Logan, Utah). […] The cellular pellet (in Tris-HCl buffer) was stored at […] until the radioligand binding was performed.
For use in binding assays, crude membrane preparations were prepared by centrifugation of the cellular pellet at 35,600×g for 10 min. The supernatant was decanted and discarded, and the cellular pellet was resuspended in 1 ml of Tris-HCl buffer followed by homogenization with a Brinkmann Polytron at setting 5.5 for 15 s. Centrifugation was repeated as above, the supernatant was decanted and discarded, and the cellular pellet was resuspended in 1 ml of Tris-HCl buffer followed by homogenization. Centrifugation was repeated a third time, the supernatant was discarded, and the final cellular pellet was suspended in 0.5-2.5 ml of Tris-HCl buffer. Protein concentration of the membrane preparation was estimated by the method of Lowry et al. using bovine serum albumin as a standard.
Incubation was at 20° C. for 40 min. The assay was routinely terminated by addition of ice-cold 0.9% NaCl (5×1.5 ml), followed by rapid filtration through a GF/B filter strip that had been pretreated with 0.2% or 2% polyethyleneimine. Details of binding assays have been described previously. […] Data were analyzed using the LIGAND program.

[3] = Body temperature lowering in mice; type: in vivo; conditions: intraperitoneal; for effect on body temperature: 10 times the dosage of that for NT69, FIG. 5
Text: At time “0” baseline readings were made. […] The thermistor probe was inserted 2 cm into the rectum for the measurement of body temperature.

6-keto-prostaglandin F1α = assay: Plasma prostaglandin levels after injection; type: in vivo; conditions: mice, 30 min after injection; NT69 2 mg/kg, NT79 20 mg/kg intraperitoneally; compared to saline; surrogate marker for hypotension
Description: Blood samples from 3 mice were pooled for each condition.
Therefore, in preliminary studies, levels of 6-keto-prostaglandin F1α immunoreactivity were measured after injection of saline, NT69, or NT79 into mice (FIG. 8).

Tail flick test = type: in vivo; conditions: rats, 20 mg/kg intraperitoneally, FIG. 6
Description: The tail flick test also measures changes in nociceptive threshold to thermal stimulus. The rats were administered 20 mg/kg of NT79 intraperitoneally. The rat was placed in a restrainer. Water was heated to 52° C. (52-54° C.). The rat's tail was immersed in the heated water. The latency to flick the tail was recorded. A 10 sec cutoff period was used to prevent tissue damage. Antinociception was expressed as a percentage of the Maximal Possible Effect (MPE) % MPE=100×(test latency−baseline latency)/(cutoff time {10 s}−baseline latency). Analgesic compounds will result in higher % MPE.

[4] = Acetic acid-induced writhing test; type: in vivo; conditions: rats, 20 mg/kg intraperitoneally, FIG. 7
Description: The writhing test was used to measure changes in the nociceptive threshold to a chemical stimulus. The rats were administered 20 mg/kg of NT79 intraperitoneally. The rats were also injected with 0.5 ml of a 2% (v/v) aqueous solution of acetic acid and placed individually in clear plastic containers for observation.
Behavioral Measure: The number of writhes was counted during a 60 min observation period. A writhe was defined as stretching of the hind limbs accompanied by a contraction of abdominal muscles. Analgesic compounds will result in lower number of writhes.

[5] = read-out: hNTS1 Geometric Mean ∀ SEM (equilibrium dissociation constant Kd)
[6] = Table 2, read-out: hNTS2 Geometric Mean ∀ SEM (equilibrium dissociation constant Kd)

T1 sequence (O95665 whole entry): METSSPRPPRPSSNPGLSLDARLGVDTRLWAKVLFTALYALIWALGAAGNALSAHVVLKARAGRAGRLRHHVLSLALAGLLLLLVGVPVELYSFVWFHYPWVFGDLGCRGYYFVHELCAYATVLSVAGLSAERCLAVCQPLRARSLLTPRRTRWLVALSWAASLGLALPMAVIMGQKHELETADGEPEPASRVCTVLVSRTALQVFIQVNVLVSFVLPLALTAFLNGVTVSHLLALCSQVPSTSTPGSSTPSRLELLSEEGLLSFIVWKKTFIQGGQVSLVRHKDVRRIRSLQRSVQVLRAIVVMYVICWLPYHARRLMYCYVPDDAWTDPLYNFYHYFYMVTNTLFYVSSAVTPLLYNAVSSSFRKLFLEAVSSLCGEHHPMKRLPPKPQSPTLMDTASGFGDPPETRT
T2 sequence (P30989 whole entry): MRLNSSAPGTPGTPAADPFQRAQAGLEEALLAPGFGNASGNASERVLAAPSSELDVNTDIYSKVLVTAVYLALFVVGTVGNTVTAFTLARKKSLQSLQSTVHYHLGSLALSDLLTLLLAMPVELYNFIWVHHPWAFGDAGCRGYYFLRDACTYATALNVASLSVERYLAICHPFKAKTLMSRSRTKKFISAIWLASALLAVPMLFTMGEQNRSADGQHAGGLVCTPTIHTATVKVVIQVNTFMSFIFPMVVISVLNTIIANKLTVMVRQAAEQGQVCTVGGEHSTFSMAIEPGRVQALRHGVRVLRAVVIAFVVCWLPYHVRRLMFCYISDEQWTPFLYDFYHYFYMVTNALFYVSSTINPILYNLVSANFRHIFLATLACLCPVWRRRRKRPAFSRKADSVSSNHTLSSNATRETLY

| half-life [2] [h] | hNTS1 Selectivity (hNTS1) | Kd (hNTS1; [5]) [µM] | hNTS2 Selectivity (hNTS2; Table 2, hNTS2 over hNTS1) | Kd (hNTS2; [6]) [µM] | SMILES | Kd (hNTS2; text, read-out: Kd at hNTS2) [µM] | hNTS2 Selectivity (hNTS2; Table 4) | further results |
| --- | --- | --- | --- | --- | --- | --- | --- | --- |
|  |  |  |  |  | CC[C@H](C)[C@H](NC(=O)[C@@H](Cc1cccc2ccccc12)NC(=O)[C@@H]1CCCN1C(=O)[C@H](CCCNC(=N)N)NC(=O)[C@@H](N)CCCNC(=N)N)C(=O)N[C@@H](CC(C)C)C(=O)O [NT50, [D-3,1-Nal^11]NT(8-13)] | 0.0173 |  | behavioral effect [1]: caused behavioral activation; effects on body temperature [1]: little or no effects on body temperature |
| > 100 | 0.7 | 0.0102 ± 0.0006 | 1.4 | 0.0071 ± 0.0008 | CC(C)C[C@H](NC(=O)[C@@H](NC(=O)[C@H](Cc1cccc2[nH]ccc12)NC(=O)[C@@H]1CCCN1C(=O)[C@H](CCCNC(=N)N)NC(=O)[C@H](N)CCCCN)C(C)(C)C)C(=O)O [NT66L, [D-Lys^8,L-neo-Trp^11,tert-Leu^12]NT(8-13)] (H-[dK]RP[Ala(indol-4-yl)][Tle]L-OH; N-terminus and C-terminus assumed) |  | 2 |  |
| > 100 | 2.1 | 0.00059 ± 5e-05 | 0.5 | 0.00123 ± 3e-05 | CC[C@H](C)[C@H](NC(=O)[C@H](Cc1cccc2[nH]ccc12)NC(=O)[C@@H]1CCCN1C(=O)[C@H](CCCNC(=N)N)NC(=O)[C@H](N)CCCCN)C(=O)N[C@@H](CC(C)C)C(=O)O [NT67L, [D-Lys^8,L-neo-Trp^11]NT(8-13)] (H-[dK]RP[Ala(indol-4-yl)]IL-OH; N-terminus and C-terminus assumed) |  | — (“—“ indicates higher affinity for hNTS1) |  |
| > 100 | 41.0 |  | 0.02 |  | CC(C)C[C@H](NC(=O)[C@@H](NC(=O)[C@H](Cc1cccc2[nH]ccc12)NC(=O)[C@@H]1CCCN1C(=O)[C@H](N)CCCCN)C(C)(C)C)C(=O)O [NT72, [D-Lys^9,L-neo-Trp^11,tert-Leu^12]NT(9-13)] (H-[dK]P[Ala(indol-4-yl)][Tle]L-OH; N-terminus and C-terminus assumed) | 1.4 | — (“—“ indicates higher affinity for hNTS1) | Kd (hNTS1; text, read-out: Kd at hNTS1): 0.034 µM |
| > 100 | 5.5 | 0.03 ± 0.003 | 0.2 | 0.162 ± 0.003 | CC[C@H](C)[C@H](NC(=O)[C@H](Cc1cccc2[nH]ccc12)NC(=O)[C@@H]1CCCN1C(=O)[C@H](N)CCCCN)C(=O)N[C@@H](CC(C)C)C(=O)O [NT73, [D-Lys^9,L-neo-Trp^11]NT(9-13)] (H-[dK]P[Ala(indol-4-yl)]IL-OH; N-terminus and C-terminus assumed) |  |  |  |

| SMILES | half-life [2] [h] | hNTS1 Selectivity (hNTS1) | Kd (hNTS1; [5]) [µM] | hNTS2 Selectivity (hNTS2; Table 2, hNTS2 over hNTS1) | Kd (hNTS2; [6]) [µM] | Kd (hNTS2; text, read-out: Kd at hNTS2) [µM] | hNTS2 Selectivity (hNTS2; Table 4) | further results |
| --- | --- | --- | --- | --- | --- | --- | --- | --- |
| CN[C@@H](CCCNC(=N)N)C(=O)N[C@@H](CCCCN)C(=O)N1CCC[C@H]1C(=O)N[C@@H](Cc1cccc2[nH]ccc12)C(=O)N[C@H](C(=O)N[C@@H](CC(C)C)C(=O)O)C(C)(C)C [NT69L, [N-methyl-Arg^8,L-Lys^9,L-neo-Trp^11,tert-Leu^12]NT(8-13)] (H-[NMeR]KP[Ala(indol-4-yl)][Tle]L-OH; C-terminus assumed) | > 100 | 0.7 | 0.0031 ± 0.0004 | 1.5 | 0.0021 ± 0.0002 |  | 1.5 | change in body temperature (decrease) ([3]; FIG. 5): about 10 °C; plasma levels of prostaglandin (6-keto-prostaglandin F1α immunoreactivity) (6-keto-prostaglandin F1α): markedly elevated |
| CN[C@@H](CCCNC(=N)N)C(=O)N[C@@H](CCCNC(=N)N)C(=O)N1CCC[C@H]1C(=O)N[C@H](Cc1cccc2ccccc12)C(=O)N[C@H](C(=O)N[C@@H](CC(C)C)C(=O)O)C(C)(C)C [NT79, [N-methyl-Arg^8,D-3,1-Nal^11,tert-Leu^12]NT(8-13)] (H-[NMeR]RP[d1Nal][Tle]L-OH; C-terminus assumed) |  |  |  | 82 |  |  | 82 | antinociceptive effect in tail flick assay (Tail flick test): demonstrated antinociceptive effects; effect on body temperature [3]: minimal effects; antinociceptive effect in writhing pain model [4]: robust antinociceptive effect; Kd (hNTS1): 1.8 µM; Kd (hNTS1; Kd at hNTS1): ~1.8 µM; plasma levels of prostaglandin (6-keto-prostaglandin F1α immunoreactivity) (6-keto-prostaglandin F1α): no effect; Kd (hNTS2): 0.022 µM; selectivity for hNTS2 (hNTS2; text): 82 fold |
| CC[C@H](C)[C@H](NC(=O)[C@@H](Cc1cccc2ccccc12)NC(=O)[C@@H]1CCCN1C(=O)[C@H](CCCNC(=N)N)NC(=O)[C@H](CCCNC(=N)N)NC)C(=O)N[C@@H](CC(C)C)C(=O)O [NT80, [N-methyl-Arg^8,D-3,1-Nal^11]NT(8-13)] |  |  |  |  | 0.03 | ~0.03 |  | effect on body temperature [3]: minimal effects |
